Experimental data reported in patent US10597388B2, “Pyridazinone herbicides” (FMC CORPORATION, priority 2014, dated 2020).

Columns and labels:
Test in all cases: Test C greenhouse herbicide test, pre- and postemergence
Assay type in all cases: in vivo
[1] = system: nutsedge, yellow (yellow nutsedge, Cyperus esculentus)
Description: (§1) Seeds of plant species selected from blackgrass (Alopecurus myosuroides), ryegrass, Italian (Italian ryegrass, Lolium multiflorum), wheat (winter wheat, Triticum aestivum), galium (catchweed bedstraw, Galium aparine), corn (Zea mays), large crabgrass, large (large crabgrass, Digitaria sanguinalis), foxtail, giant (giant foxtail, Setaria faberii), johnsongrass (Sorghum halepense), lambsquarters (Chenopodium album), morningglory (Ipomoea coccinea), nutsedge, yellow (yellow nutsedge, Cyperus esculentus), pigweed (Amaranthus retroflexus), ragweed (common ragweed, Ambrosia elatior), soybean (Glycine max), barnyardgrass (Echinochloa crus-galli), oilseed rape (Brassica napus), waterhemp (common waterhemp, Amaranthus rudis), and velvetleaf (Abutilon theophrasti) were planted into a blend of loam soil and sand and treated preemergence with test chemicals formulated in a non-phytotoxic solvent mixture which included a surfactant.
(§2) At the same time, plants selected from these crop and weed species and also chickweed (common chickweed, Stellaria media), kochia (Kochia scoparia), and oat, wild (wild oat, Avena fatua), were planted in pots containing Redi-Earth® planting medium (Scotts Company, 14111 Scottslawn Road, Marysville, Ohio 43041) comprising spaghnum peat moss, vermiculite, wetting agent and starter nutrients and treated with postemergence applications of test chemicals formulated in the same manner. Plants ranged in height from 2 to 18 cm (1- to 4-leaf stage) for postemergence treatments. Treated plants and controls were maintained in a greenhouse for 13 to 15 d, after which time all species were compared to controls and visually evaluated. Plant response ratings, summarized in Table C, are based on a scale of 0 to 100 where 0 is no effect and 100 is complete control. A dash (-) response means no test result.

[2] = system: barnyardgrass (Echinochloa crus-galli)
Description: as §1, §2

[3] = system: blackgrass (Alopecurus myosuroides)
Description: as §1, §2

[4] = system: velvetleaf (Abutilon theophrasti)
Description: as §1, §2

[5] = system: foxtail, giant (giant foxtail, Setaria faberii)
Description: as §1, §2

[6] = system: pigweed (Amaranthus retroflexus)
Description: as §1, §2

[7] = system: johnsongrass (Sorghum halepense)
Description: as §1, §2

[8] = system: morningglory (Ipomoea coccinea)
Description: as §1, §2

[9] = system: soybean (Glycine max)
Description: as §1, §2

[10] = system: ragweed (common ragweed, Ambrosia elatior)
Description: as §1, §2

[11] = system: wheat (winter wheat, Triticum aestivum)
Description: as §1, §2

[12] = system: waterhemp (common waterhemp, Amaranthus rudis)
Description: as §1, §2

[13] = system: crabgrass, large (large crabgrass, Digitaria sanguinalis)
Description: as §1, §2

[14] = system: oilseed rape (Brassica napus)
Description: as §1, §2

[15] = system: lambsquarters (Chenopodium album)
Description: as §1, §2

[16] = system: galium (catchweed bedstraw, Galium aparine)
Description: as §1, §2

[17] = Postemergence, 16 g ai/ha, scale 0 to 100 (0 no effect, 100 complete control)
[18] = Postemergence, 31 g ai/ha, 0 to 100 scale (0 no effect, 100 complete control)
[19] = Postemergence, 125 g ai/ha, scale 0 to 100, 0 is no effect, 100 is complete control
[20] = postemergence, 62 g ai/ha, scale 0 to 100, 0 no effect, 100 complete control

Compound: COc1ccc2ccccc2c1-c1c(O)c(C)nn(C)c1=O [Compound 40]
- Plant response rating, Nutsedge, Yellow [1, 17]: 0
- Nutsedge, Yellow plant response rating [1, 18]: 0
- Plant response rating, Nutsedge, Yellow [1, 19]: 20
- Nutsedge, Yellow plant response rating [1, 20]: 15
- Plant response rating, Barnyardgrass [2, 17]: 5
- Barnyardgrass plant response rating [2, 18]: 5
- Plant response rating, Barnyardgrass [2, 19]: 25
- Barnyardgrass plant response rating [2, 20]: 15
- Plant response rating, Blackgrass [3, 17]: 5
- Blackgrass plant response rating [3, 18]: 5
- Plant response rating, Blackgrass [3, 19]: 45
- Blackgrass plant response rating [3, 20]: 15
- Plant response rating, Velvetleaf [4, 17]: 5
- Velvetleaf plant response rating [4, 18]: 5
- Plant response rating, Velvetleaf [4, 19]: 20
- Velvetleaf plant response rating [4, 20]: 10
- Plant response rating, Foxtail, Giant [5, 17]: 5
- Foxtail, Giant plant response rating [5, 18]: 5
- Plant response rating, Foxtail, Giant [5, 19]: 20
- Foxtail, Giant plant response rating [5, 20]: 15
- Plant response rating, Pigweed [6, 17]: 15
- Pigweed plant response rating [6, 18]: 35
- Plant response rating, Pigweed [6, 19]: 85
- Pigweed plant response rating [6, 20]: 65
- Plant response rating, Johnsongrass [7, 17]: 0
- Johnsongrass plant response rating [7, 18]: 0
- Plant response rating, Johnsongrass [7, 19]: 5
- Johnsongrass plant response rating [7, 20]: 5
- Plant response rating, Morningglory [8, 17]: 5
- Morningglory plant response rating [8, 18]: 55
- Plant response rating, Morningglory [8, 19]: 80
- Morningglory plant response rating [8, 20]: 65
- Plant response rating, Soybean [9, 17]: 35
- Soybean plant response rating [9, 18]: 5
- Plant response rating, Soybean [9, 19]: 30
- Soybean plant response rating [9, 20]: 60
- Plant response rating, Ragweed [10, 17]: 25
- Ragweed plant response rating [10, 18]: 45
- Plant response rating, Ragweed [10, 19]: 85
- Ragweed plant response rating [10, 20]: 75
- Plant response rating, Wheat [11, 17]: 0
- Wheat plant response rating [11, 18]: 10
- Plant response rating, Wheat [11, 19]: 10
- Wheat plant response rating [11, 20]: 10
- Plant response rating, Waterhemp [12, 17]: 20
- Waterhemp plant response rating [12, 18]: 65
- Plant response rating, Waterhemp [12, 19]: 80
- Waterhemp plant response rating [12, 20]: 65
- Plant response rating, Crabgrass, Large [13, 17]: 5
- Crabgrass, Large plant response rating [13, 18]: 5
- Plant response rating, Crabgrass, Large [13, 19]: 10
- Crabgrass, Large plant response rating [13, 20]: 5
- Plant response rating, Oilseed Rape [14, 17]: 0
- Oilseed Rape plant response rating [14, 18]: 5
- Plant response rating, Oilseed Rape [14, 19]: 5
- Oilseed Rape plant response rating [14, 20]: 30
- Plant response rating, Lambsquarters [15, 17]: 50
- Lambsquarters plant response rating [15, 18]: 70
- Plant response rating, Lambsquarters [15, 19]: 80
- Lambsquarters plant response rating [15, 20]: 70
- Plant response rating, Galium [16, 17]: 30
- Galium plant response rating [16, 18]: 80
- Plant response rating, Galium [16, 19]: 90
- Galium plant response rating [16, 20]: 85
